According to patent publication US7691969B2, “Isolated GRP94 ligand binding domain polypeptide and nucleic acid encoding same, crystalline form of same, and screening methods employing same” (Duke University, priority 2001, dated 2010):

Legend:
GRP94 [1] = target: T1, GRP94 (Sus scrofa, UniProt Q29092); assay: Citrate synthase thermal aggregation assay (chaperone activity); format: biochemical, porcine; settings: 1 μM GRP94 preincubated 2 h with 10 μM bis-ANS; 0.15 μM citrate synthase, 43° C.
T1 construct: GRP94 was purified from porcine pancreas rough microsomes; from tissue; host or cells: porcine pancreas rough microsomes (lumenal contents)
Protocol: Citrate Synthase Aggregation Assays. The effects of GRP94 on the thermal aggregation of citrate synthase were assayed by the methods described by Buchner et al. (1998) Methods Enzymol 290:323-338. Samples containing no protein, or GRP94 (1 μM), were incubated in 40 mM HEPES pH 7.5 for two hours at 37° C. with either 0.2% DMF or 10 µM bis-ANS. The samples were then warmed to 43° C. for five minutes and placed in a spectrofluorometer thermostatted at 43° C. Citrate synthase was then added to 0.15 μM final concentration and the thermal aggregation of the enzyme followed by light scattering. Excitation and emission wavelengths were both 500 nm with 2 nm slit width. The time course of citrate synthase aggregation was followed for 1000 seconds.
To determine if the bis-ANS-dependent conformational changes in GRP94 were of functional significance, the molecular chaperone activities of native, heat shocked and bis-ANS treated GRP94 were evaluated in a thermal aggregation assay, as described by Jakob et al. (1995) J Biol Chem 270:7288-7294 and Buchner et al. (1998) Methods Enzymol 290:323-338. […] Following experimental treatment of the GRP94, reactions were equilibrated at 43° C., citrate synthase then added and aggregation, as represented by light scattering, was measured.

GRP94 [2] = target: T1, GRP94; assay: Far-UV circular dichroism; format: biochemical, porcine; settings: 1 μM GRP94, 10 μM bis-ANS, 2 h
Protocol: Circular Dichroism Measurements. Far-UV CD spectrometry was performed on an AVIV Associates 62DS™ circular dichroism spectrometer (AVIV Associates of Lakewood, N.J.). Samples were analyzed in a 1 mm path length quartz cuvette at 37° C. GRP94 samples (1 μM) were prepared in standard phosphate buffered saline solution as buffer A produced unacceptable dynode voltages in the relevant region of the spectrum. GRP94 was incubated with 10 µM bis-ANS for 2 hours at 37° C. prior to obtaining spectra. Spectra were recorded from 300 to 195 nm. The α-helical content of GRP94 was calculated from the molar ellipticity at 222 nm. See Myers & Jakoby (1975) J Biol Chem 250:3785-3789.

GRP94 [3] = target: T1, GRP94; assay: Conformational analysis by proteolysis (trypsin, SDS-PAGE); format: biochemical, porcine; settings: 5 μM GRP94, 50 μM bis-ANS, 1 h 37° C.; 0.1% trypsin 30 min
Protocol: Conformational Analysis by Proteolysis. The conformational state of GRP94 was assessed by tryptic digestion of the protein and subsequent SDS-PAGE analysis. […] Samples were then combined with 0.1% trypsin and digested for 30 minutes at 37° C. An equal volume of SDS-PAGE sample buffer was added and the samples were snap frozen in liquid nitrogen. Immediately prior to gel analysis, samples were thawed and boiled for 5 minutes. […] Gels were fixed and stained with Coomassie Blue. For time course experiments, excess free bis-ANS was removed immediately prior to trypsinization by gel filtration on 0.5 ml G-25 SEPHADEX® spin columns.

GRP94 [4] = target: T1, GRP94; assay: Identification of the bis-ANS binding site (photo-crosslinking, Edman sequencing); parameters: species or system porcine
Protocol: Identification of the bis-ANS binding site. […] Following photocrosslinking, GRP94-bis-ANS complexes were digested with trypsin for one hour at 37° C.
As described in Materials and Methods, GRP94 was combined with an excess of bis-ANS and photo-crosslinked on ice for 15 minutes. GRP94 was subsequently digested with trypsin, the fluorescent peptides purified by HPLC, and the sequence of the labeled peptides determined by Edman sequencing.

GRP94 [5] = target: T1, GRP94; assay: Fluorophore binding to native and heat shocked GRP94 (fluorescence emission); parameters: species or system porcine
Source text: Fluorophore Binding Reactions.
Fluorescence Measurements. […] All spectra were background corrected.
To characterize the structural basis for the heat shock dependent activation of GRP94 activity, the interaction of polarity-sensitive fluorophores with native and heat shocked GRP94 was examined. The three probes tested, Prodan (6-propionyl-2-(dimethylamino)naphthalene), 8-ANS (1,8-anilinonaphthalenesulfonate) and bis-ANS (bis(1,8-anilino-naphthalenesulfonate) are structurally related probes that bind to hydrophobic sites on proteins and undergo substantial fluorescence spectrum changes upon introduction into nonpolar environments, as discussed by Rosen & Weber (1969) Biochemistry 8:3915-3920; Weber & Farris (1979) Biochemistry 18:3075-3078; Takashi et al. (1977) Proc Natl Acad Sci USA 74:2334-2338; Shi et al. (1994) Biochemistry 33:7536-7546. The following experimental protocol was utilized. GRP94 was warmed to 37° C. and either maintained at 37° C. or heat shocked for 15 minutes at 50° C., followed by incubation at 37° C. Subsequently, probe stocks were added to the GRP94 stocks and emission spectra recorded after 30 min at 37° C.
Under the experimental conditions used in this series of experiments, bis-ANS binding to GRP94 was near maximal at a 20-fold molar excess of GRP94 monomer over bis-ANS, with half maximal binding observed at 110 nM GRP94 (FIG. 2B).

GRP94 [6] = target: T1, GRP94; assay: Native blue electrophoresis (BN-PAGE) of oligomeric state; format: biochemical, porcine; settings: ten-fold molar excess of bis-ANS
Protocol: Native Blue Electrophoresis. The oligomeric state of GRP94 was assayed by blue native polyacrylamide gel electrophoresis (BN-PAGE) as described by Schagger et al. (1994) Anal Biochem 217:220-230. GRP94 was either heat shocked or exposed to a 10-fold molar excess of bis-ANS for the indicated times. Samples were then dissolved in 15% glycerol and loaded onto 5-18% gradient gels with 0.02% Coomassie Brilliant Blue in the cathode buffer. Gels were run at 4° C., stained with Coomassie Blue, de-stained and dried.

HSP90 [7] = target: HSP90 (Homo sapiens, UniProt P07900); assay: Conformational analysis by proteolysis (trypsin, SDS-PAGE); format: biochemical
HSP90 [8] = target: HSP90 (Saccharomyces cerevisiae, UniProt P02829); settings: Prodromou et al. (1997); cited from earlier work
GRP94 [9] = target: T1, GRP94; assay: ATP binding assay ([32P]ATP, nitrocellulose filtration); parameters: species or system porcine; settings: 50 μM [32P]ATP, 1 h on ice
Protocol: (§1) ATP Binding Assay. Six μg of GRP94, BiP, and Hsp90 was incubated with 50 μM […] (1000 μCi/μmol) (Amersham Pharmacia Biotech of Piscataway, N.J.) in buffer B on ice for 1 hour. Nitrocellulose filters (BA85) (Schleicher & Schuell of Keene, N.H.) were individually wet in buffer B before use, and bound versus free [^32P]-ATP was separated by vacuum filtration. Filters were washed with 3×2 mL of ice cold buffer B, placed in 5 mL of scintillation fluid, vortexed, and counted.

BiP = assay: as above; parameters: species or system porcine; settings: 50 μM [32P]ATP, 1 h on ice
Protocol: as §1

GRP94 [10] = target: T1, GRP94; assay: [3H]-NECA competitive displacement assay; format: binding, porcine
Protocol: Where indicated, binding reactions were performed in either buffer C (10 mM Tris, pH 7.5, 50 mM KCl, 5 mM MgCl2, 2 mM DTT, 0.01% NP-40, 20 mM Na2MoO4) or 50 mM Tris, pH 7.5, 10 mM Mg(OAc)2. […] Vacuum filtration was performed with an Amersham Pharmacia Biotech (Piscataway, N.J.) vacuum filtration manifold.
All binding reactions were performed in triplicate and corrected by subtraction of background values, determined in binding reactions lacking GRP94.

GRP94 [11] = target: T1, GRP94; assay: Tryptophan fluorescence (tertiary conformational state); format: biochemical, porcine; settings: 50 μM NECA, 50 μM geldanamycin, 2.5 mM ATP or 2.5 mM ADP; 1 h 37° C.
Protocol: Tryptophan Fluorescence. Tryptophan fluorescence measurements were conducted in a FLUOROMAX™ spectrofluorometer (Spex Industries, Inc. of Edison, N.J.) with the slit widths set to 1 nm for both excitation and emission. […] All spectra were corrected by subtraction of buffer or buffer plus ligand samples. GRP94 (50 μg/ml) was incubated in buffer A supplemented with 10 mM Mg(OAc)2 and the following concentrations of ligands for 1 hour at 37° C. […] Samples were then cooled to room temperature, transferred to a quartz cuvette, and the spectra collected.

T1 sequence (Q29092 22-804): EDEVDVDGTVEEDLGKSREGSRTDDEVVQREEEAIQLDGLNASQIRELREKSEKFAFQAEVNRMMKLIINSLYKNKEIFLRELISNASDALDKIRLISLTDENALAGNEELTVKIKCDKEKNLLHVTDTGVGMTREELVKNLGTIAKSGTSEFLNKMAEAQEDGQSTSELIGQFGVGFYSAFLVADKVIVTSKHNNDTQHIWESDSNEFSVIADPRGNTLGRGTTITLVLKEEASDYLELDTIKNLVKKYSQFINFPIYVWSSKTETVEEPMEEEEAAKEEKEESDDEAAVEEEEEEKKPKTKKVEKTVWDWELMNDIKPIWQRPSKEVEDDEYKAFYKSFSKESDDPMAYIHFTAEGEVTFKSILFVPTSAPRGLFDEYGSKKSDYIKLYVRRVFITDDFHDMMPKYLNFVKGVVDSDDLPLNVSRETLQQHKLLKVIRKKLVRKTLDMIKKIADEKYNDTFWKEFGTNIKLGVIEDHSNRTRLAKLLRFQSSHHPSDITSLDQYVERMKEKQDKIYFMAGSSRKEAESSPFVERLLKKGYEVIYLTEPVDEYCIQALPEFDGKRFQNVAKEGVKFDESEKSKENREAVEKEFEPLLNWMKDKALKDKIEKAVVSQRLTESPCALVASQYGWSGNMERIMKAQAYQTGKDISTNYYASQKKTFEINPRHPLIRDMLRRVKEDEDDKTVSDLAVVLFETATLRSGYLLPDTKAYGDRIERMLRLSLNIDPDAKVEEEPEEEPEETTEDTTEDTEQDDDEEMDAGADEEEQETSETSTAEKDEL
Sequence of HSP90 (Saccharomyces cerevisiae, UniProt P02829) (P02829 whole entry): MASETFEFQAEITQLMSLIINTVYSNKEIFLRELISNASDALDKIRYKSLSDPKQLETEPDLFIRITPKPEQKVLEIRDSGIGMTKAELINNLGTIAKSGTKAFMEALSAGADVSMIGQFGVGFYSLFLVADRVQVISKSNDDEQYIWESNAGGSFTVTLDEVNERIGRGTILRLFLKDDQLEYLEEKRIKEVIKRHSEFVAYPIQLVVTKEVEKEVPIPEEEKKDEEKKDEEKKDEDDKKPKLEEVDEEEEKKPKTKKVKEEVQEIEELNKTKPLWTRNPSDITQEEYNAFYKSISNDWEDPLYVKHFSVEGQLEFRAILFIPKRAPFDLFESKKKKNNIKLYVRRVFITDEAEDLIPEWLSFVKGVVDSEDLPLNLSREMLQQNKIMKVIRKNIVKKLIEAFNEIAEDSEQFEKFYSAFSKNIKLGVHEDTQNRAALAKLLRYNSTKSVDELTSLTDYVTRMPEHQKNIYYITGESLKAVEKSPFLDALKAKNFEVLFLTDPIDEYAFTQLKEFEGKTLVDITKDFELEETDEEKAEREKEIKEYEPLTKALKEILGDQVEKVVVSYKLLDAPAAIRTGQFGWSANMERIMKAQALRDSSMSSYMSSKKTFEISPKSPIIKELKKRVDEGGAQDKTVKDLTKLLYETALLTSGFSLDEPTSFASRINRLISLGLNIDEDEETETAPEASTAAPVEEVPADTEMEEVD

Row | Molecule | thermal aggregation of citrate synthase in presence of treated GRP94 (GRP94 [1]) | secondary structure of GRP94 (CD spectra) (GRP94 [2]) | trypsin proteolysis pattern of GRP94 (GRP94 [3]) | site of bis-ANS binding to GRP94 (labeled peptide) (GRP94 [4]) | agonist activity for GRP94 activation (GRP94 [5]) | fluorophore binding to native versus heat shocked GRP94 (fluorescence emission) (GRP94 [5]; 0.5 μM GRP94, 5 μM probe, 37° C.) | Kd (GRP94 [5]; fixed 50 nM bis-ANS, increasing GRP94, excitation 393 nm, emission 475 nm, read-out: half maximal binding of bis-ANS to heat shocked GRP94 (GRP94 concentration)) [nM] | molar excess of GRP94 monomer over bis-ANS at near maximal binding (GRP94 [5]; heat shocked GRP94) | quaternary structure (oligomerization) of GRP94 (GRP94 [6]) | trypsin proteolysis pattern of HSP90 (HSP90 [7]) | Kd (HSP90 [8]) [µM] | ATP binding (GRP94 [9]) | ATP binding (BiP) | molar excess required for 50% inhibition of [3H]-NECA binding (GRP94 [10]; 20 nM [3H]-NECA) | effect of excess Mg2+ on binding to GRP94 (GRP94 [10]; 10 mM Mg(OAc)2 versus nominal magnesium) | nucleoside base specificity: binding to GRP94 by [3H]-NECA displacement (GRP94 [10]; competitors at 50 μM) | relative affinities for GRP94 in presence of Mg2+ (GRP94 [10]; excess Mg2+) | efficacy of competing NECA binding, ATP relative to ADP (GRP94 [10]; no excess Mg2+) | change of GRP94 tryptophan fluorescence (GRP94 [11])
1 | 4,4′-dianilino-1,1-binaphthyl-5,5-disulfonic acid [bis-ANS] | no thermal aggregation of citrate synthase was detectable | does not alter GRP94 secondary structure | substantially reduced recovery of the prominent proteolysis products | mapped to residues 271-281 of the N-terminal domain of GRP94 | both an agonist for GRP94 activation as well as an indicator for the relative state of activation | a level of fluorophore binding similar to that seen with heat shocked GRP94 was observed | 110 | 20 -fold | induces changes in the quaternary structure of GRP94 that mimic those seen upon heat shock | Essentially identical proteolysis patterns were observed following either heat shock or bis-ANS treatment of HSP90 |  |  |  |  |  |  |  |  | 
2 | Nc1ncnc2c1ncn2[C@@H]1O[C@H](COP(=O)(O)OP(=O)(O)OP(=O)(O)O)[C@@H](O)[C@H]1O [ATP] |  |  |  |  |  |  |  |  |  |  | 132 | no ATP binding was observed to Hsp90 or GRP94 | displayed the expected ATP binding activity | ~1000 -fold molar excess | markedly stimulated the binding of ATP, ADP and AMP | GRP94 could bind both ATP and deoxyATP | nearly identical relative affinities | eight-fold higher efficacy than ADP | the tryptophan fluorescence was decreased
